Reference: ChEMBL document CHEMBL1201862, “PubChem BioAssay data set” (2004)
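Cultured in 96-well plates, cells were exposed to test compound for 48 hours across five concentrations. At the GI50, growth is halved.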 Calls of active or inactive are those of the source. Rule as the data show it: active = GI50 up to about 1.1 µM and inactive = higher.

Columns and labels:
Assay in all cases: NCI tumour cell line growth inhibition, 48 h
Malme-3M = test system: Malme-3M
SW-620 = test system: SW-620
SF-295 = test system: SF-295
TK-10 = test system: TK-10
OVCAR-8 = test system: OVCAR-8
UO-31 = test system: UO-31
NCI-H460 = test system: NCI-H460
HCC 2998 = test system: HCC 2998
UACC-62 = test system: UACC-62
SNB-78 = test system: SNB-78
EKVX = test system: EKVX
SF-268 = test system: SF-268
HCT-15 = test system: HCT-15
DMS-114 = test system: DMS-114
DLD-1 = test system: DLD-1
SK-OV-3 = test system: SK-OV-3
KM-20L2 = test system: KM-20L2
IGROV-1 = test system: IGROV-1
RPMI-8226 = test system: RPMI-8226
KM12 = test system: KM12
A549 = test system: A549
SF-539 = test system: SF-539
DMS-273 = test system: DMS-273
HL-60 = test system: HL-60
SK-MEL-5 = test system: SK-MEL-5
786-0 = test system: 786-0
HOP-18 = test system: HOP-18
SK-MEL-2 = test system: SK-MEL-2
RXF 631 = test system: RXF 631
RXF 393 = test system: RXF 393
OVCAR-3 = test system: OVCAR-3
NCI-H226 = test system: NCI-H226
SK-MEL-28 = test system: SK-MEL-28
LOX IMVI = test system: LOX IMVI
HT-29 = test system: HT-29
U-251 = test system: U-251
UACC-257 = test system: UACC-257
NCI-H23 = test system: NCI-H23
CAKI-1 = test system: CAKI-1
ACHN = test system: ACHN
A498 = test system: A498
SNB-75 = test system: SNB-75
COLO 205 = test system: COLO 205
CCRF-CEM = test system: CCRF-CEM
HOP-92 = test system: HOP-92
HOP-62 = test system: HOP-62
SN12C = test system: SN12C
MOLT-4 = test system: MOLT-4
SNB-19 = test system: SNB-19
K562 = test system: K562
NCI-H522 = test system: NCI-H522
OVCAR-5 = test system: OVCAR-5
HCT-116 = test system: HCT-116
SR = test system: SR
XF498 = test system: XF498
LXFL 529 = test system: LXFL 529
M14 = test system: M14
OVCAR-4 = test system: OVCAR-4
M19-MEL = test system: M19-MEL

Clc1ccc(SCCSCCCCCCCCCCSCCSc2ccc(Cl)cc2)cc1
GI50 (Malme-3M): > 100 µM (inactive)
GI50 (SW-620): > 100 µM (inactive)
GI50 (SF-295): > 100 µM (inactive)
GI50 (TK-10): > 100 µM (inactive)
GI50 (OVCAR-8): > 100 µM (inactive)
GI50 (UO-31): > 100 µM (inactive)
GI50 (NCI-H460): > 100 µM (inactive)
GI50 (HCC 2998): > 100 µM (inactive)
GI50 (UACC-62): > 100 µM (inactive)
GI50 (SNB-78): > 100 µM (inactive)
GI50 (EKVX): > 100 µM (inactive)
GI50 (SF-268): > 100 µM (inactive)
GI50 (HCT-15): > 100 µM
GI50 (DMS-114): > 100 µM (inactive)
GI50 (DLD-1): > 100 µM (inactive)
GI50 (SK-OV-3): > 100 µM (inactive)
GI50 (KM-20L2): > 100 µM (inactive)
GI50 (IGROV-1): > 100 µM (inactive)
GI50 (RPMI-8226): > 100 µM (inactive)
GI50 (KM12): > 100 µM (inactive)
GI50 (A549): > 100 µM (inactive)
GI50 (SF-539): > 100 µM (inactive)
GI50 (DMS-273): > 100 µM (inactive)
GI50 (HL-60): > 100 µM (inactive)
GI50 (SK-MEL-5): > 100 µM (inactive)
GI50 (786-0): > 100 µM (inactive)
GI50 (HOP-18): > 100 µM (inactive)
GI50 (SK-MEL-2): > 100 µM (inactive)
GI50 (RXF 631): > 100 µM (inactive)
GI50 (RXF 393): > 100 µM (inactive)
GI50 (OVCAR-3): > 100 µM (inactive)
GI50 (NCI-H226): > 100 µM (inactive)
GI50 (SK-MEL-28): > 100 µM (inactive)
GI50 (LOX IMVI): > 100 µM (inactive)
GI50 (HT-29): > 100 µM (inactive)
GI50 (U-251): > 100 µM (inactive)
GI50 (UACC-257): > 100 µM (inactive)
GI50 (NCI-H23): > 100 µM (inactive)
GI50 (CAKI-1): > 100 µM (inactive)
GI50 (ACHN): > 100 µM (inactive)
GI50 (A498): > 100 µM (inactive)
GI50 (SNB-75): > 100 µM (inactive)
GI50 (COLO 205): > 100 µM (inactive)
GI50 (CCRF-CEM): > 100 µM (inactive)
GI50 (HOP-92): > 100 µM (inactive)
GI50 (HOP-62): > 100 µM (inactive)
GI50 (SN12C): > 100 µM (inactive)
GI50 (MOLT-4): > 100 µM (inactive)
GI50 (SNB-19): > 100 µM (inactive)
GI50 (K562): > 100 µM (inactive)
GI50 (NCI-H522): > 100 µM (inactive)
GI50 (OVCAR-5): > 100 µM (inactive)

O=C(O)CCc1cccc2c1oc1c(CCC(=O)O)cccc12
GI50 (Malme-3M): > 100 µM (inactive)
GI50 (HCT-116): > 100 µM (inactive)
GI50 (SW-620): > 100 µM (inactive)
GI50 (SF-295): > 100 µM (inactive)
GI50 (TK-10): > 100 µM (inactive)
GI50 (OVCAR-8): > 100 µM (inactive)
GI50 (UO-31): > 100 µM (inactive)
GI50 (NCI-H460): > 100 µM (inactive)
GI50 (SR): > 100 µM (inactive)
GI50 (HCC 2998): > 100 µM (inactive)
GI50 (UACC-62): > 100 µM (inactive)
GI50 (SNB-78): 48.1 µM (inactive)
GI50 (SF-268): > 100 µM (inactive)
GI50 (HCT-15): > 100 µM
GI50 (DMS-114): > 100 µM (inactive)
GI50 (DLD-1): > 100 µM (inactive)
GI50 (SK-OV-3): > 100 µM (inactive)
GI50 (KM-20L2): > 100 µM (inactive)
GI50 (IGROV-1): > 100 µM (inactive)
GI50 (RPMI-8226): > 100 µM (inactive)
GI50 (KM12): > 100 µM (inactive)
GI50 (A549): > 100 µM (inactive)
GI50 (SF-539): > 100 µM (inactive)
GI50 (DMS-273): > 100 µM (inactive)
GI50 (HL-60): > 100 µM (inactive)
GI50 (SK-MEL-5): > 100 µM (inactive)
GI50 (786-0): > 100 µM (inactive)
GI50 (HOP-18): > 100 µM (inactive)
GI50 (SK-MEL-2): > 100 µM (inactive)
GI50 (XF498): > 100 µM (inactive)
GI50 (RXF 393): > 100 µM (inactive)
GI50 (OVCAR-3): > 100 µM (inactive)
GI50 (NCI-H226): > 100 µM (inactive)
GI50 (SK-MEL-28): > 100 µM (inactive)
GI50 (LXFL 529): > 100 µM (inactive)
GI50 (LOX IMVI): > 100 µM (inactive)
GI50 (HT-29): > 100 µM (inactive)
GI50 (U-251): > 100 µM (inactive)
GI50 (UACC-257): > 100 µM (inactive)
GI50 (NCI-H23): > 100 µM (inactive)
GI50 (CAKI-1): > 100 µM (inactive)
GI50 (ACHN): > 100 µM (inactive)
GI50 (M14): > 100 µM (inactive)
GI50 (A498): > 100 µM (inactive)
GI50 (SNB-75): > 100 µM (inactive)
GI50 (COLO 205): > 100 µM (inactive)
GI50 (CCRF-CEM): > 100 µM (inactive)
GI50 (HOP-92): > 100 µM (inactive)
GI50 (SN12C): > 100 µM (inactive)
GI50 (OVCAR-4): > 100 µM (inactive)
GI50 (MOLT-4): > 100 µM (inactive)
GI50 (SNB-19): > 100 µM (inactive)
GI50 (K562): > 100 µM (inactive)
GI50 (NCI-H522): > 100 µM (inactive)
GI50 (M19-MEL): > 100 µM (inactive)
GI50 (OVCAR-5): > 100 µM (inactive)
